Literature values as cited in patent US20100216719A1, “Soluble Fiber Combinations for Weight Control and Improving Parameters of Cardiovascular Health” (MANNATECH, INCORPORATED, priority 2005, published 2010).

What was measured:
[1] = test animals
[2] = subjects supplemented with 3.8 grams per day for 28 days

Substance | effect on cholesterol [1] | effect on triglycerides [1] | reduction in ApoB [2] [%] | reduction in LDL cholesterol [2] [%] | reduction in fasting glucose levels [2] [%] | reduction in plasma cholesterol [2] [%] | reduction in total cholesterol/HDL cholesterol ratio [2] [%]
guar gum | decreased only cholesterol |  |  |  |  |  | 
xanthan gum | significantly reduced | significantly reduced |  |  |  |  | 
Konjac glucomannan |  |  | 12.9 | 20.7 | 23.2 | 11.1 | 15.6
